Here are results for one compound from US20090054382A1, “COMPOSITIONS OF PHOSPHODIESTERASE TYPE IV INHIBITORS” (priority 2005, published 2009).

Assay [1] relates to TNF-α release from human PBMCs. Put plainly: Cell based assay for TNF-α release, PDE IV inhibitor in combination with p38 MAP Kinase inhibitors. Particulars: inhibiting TNF-α release from human PBMCs. The protocol:
Blood was collected in heparin or EDTA vacutainers from healthy human volunteers and Peripheral Blood Mononuclear Cells isolated using Ficoll Hypaque gradient. The cells were resuspended in serum free RPMI 1640 medium at a concentration of 2 million cells/ml.). […] of this cell suspension was co-incubated with 20 μl of compound, alone or in combination, for 10 min in a flat bottom 96 well microtiter plate. Compounds were dissolved in DMSO initially and diluted in medium for a final concentration of 0.2% DMSO. LPS (1 μg/ml, final concentration) was then added at a volume of 10 μl per well. After 30 min, 20 μl of fetal calf serum (final concentration of 10%) was added to each well. Cultures were incubated overnight at 37° C. in an atmosphere of 5% CO2 and 95% air. Supernatant were then removed and tested by ELISA for TNF-α release using a commercial kit (e.g. BD Biosciences). The level of TNF-α in treated wells was compared with the vehicle treated controls and inhibitory potency of compound was expressed as IC50 values calculated from the percent inhibition values by using Graph pad prism.

Assay [2] has as its system LPS induced airway hyperreactivity and neutrophil count in BAL. As to the kind of experiment: In-vivo assay of PDE-IV inhibitors in combination with muscarinic receptor antagonists (LPS airway hyperreactivity and neutrophilia). Particulars: Wistar rats, intratracheal, combination with Tiotropium. The procedure: MRA (1 ng/kg to 1 mg/kg) and PDE-IV inhibitor (1 ng/kg to 1 mg/kg) were instilled intratracheally under anesthesia either alone or in combination.
Wistar rats weighing 200±20 gm were used in the study. Rats had free access to food and water. On the day of experiment, animals were exposed to lipopolysaccharide (LPS, 100 μg/ml) for 40 min. One group of vehicle treated rats was exposed to phosphate buffered saline (PBS) for 40 min. […] The respiratory parameters were recorded online using Biosystem XA software, (Buxco Electronics, USA). Penh, at any chosen dose of acetylcholine was expressed as percent of PBS response and using a nonlinear regression analysis PC100 (2 folds of PBS value) values were computed. […]
PC100LPS=PC100 in vehicle treated and LPS challenged group PC100TEST=PC100 in group treated with a given dose of test compound PC100PBS=PC100 in vehicle treated group challenged with PBS Immediately after the airway hyperreactivity response was recorded, animals were sacrificed and bronchoalveolar lavage (BAL) performed. […] Total leukocyte and Neutrophil counts were expressed as cell count (millions cells ml^−1 of BAL). […]

For `COc1cc(C2=NO[C@]3(CCOC3)C2)ccc1OC(F)F` (single isomer, unassigned) [Compound No. 266, (5S or 5R)-3-[4-(Difluoromethoxy)-3-methoxyphenyl]-1,7-dioxa-2-azaspiro[4.4]non-2-ene], in assay [1], the Indication result is “synergistic response”. Further, the “synergy with muscarinic receptor antagonist (MRA)” value in assay [2] is “synergy”.
